From patent EP1203770A1 (priority 1992, dated 1994)

Target: T1, HIV-1 protease (Human immunodeficiency virus type 1 group M subtype B, UniProt P04585)
T1 construct: The protease (or proteinase), consisting of only 99 amino acids, is among the smallest enzymes known
Test: In vitro HIV protease inhibitory assay (HIV Protease FITC Assay)
Type: biochemical
Conditions: for inhibition at 0.41 µM: HIV-1 Dose 0.410 uM; for inhibition at 0.41 µM / inhibition at 1.23 µM / inhibition at 3.7 µM / inhibition at 11 µM / inhibition at 33 µM / inhibition at 100 µM / inhibition at 0.123 µM / inhibition at 0.37 µM / inhibition at 1.1 µM / inhibition at 3.3 µM / inhibition at 10 µM / inhibition at 30 µM: read-out: HIV-1 Protease % Inhib; for inhibition at 1.23 µM: HIV-1 Dose 1.230 uM; for inhibition at 3.7 µM: HIV-1 Dose 3.700 uM; for inhibition at 11 µM: HIV-1 Dose 11.000 uM; for inhibition at 33 µM: HIV-1 Dose 33.000 uM; for inhibition at 100 µM: HIV-1 Dose 100.000 uM; for Ki: read-out: HIV-1 FITC Ki; for inhibition at 0.123 µM: HIV-1 Dose 0.123 uM; for inhibition at 0.37 µM: HIV-1 Dose 0.370 uM; for inhibition at 1.1 µM: HIV-1 Dose 1.100 uM; for inhibition at 3.3 µM: HIV-1 Dose 3.300 uM; for inhibition at 10 µM: HIV-1 Dose 10.000 uM; for inhibition at 30 µM: HIV-1 Dose 30.000 uM
In short: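 Biotin/FITC-labelled peptide substrate cleaved by HIV-1 protease for 1 h at room temperature in the dark, in 0.1 M sodium acetate pH 5.5, 1.0 M NaCl, 0.05% NP-40. Uncleaved substrate captured on avidin beads and separated by filtration; fluorescence gave % inhibition.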

| Structure (SMILES) | inhibition at 0.41 µM [%] | inhibition at 1.23 µM [%] | inhibition at 3.7 µM [%] | inhibition at 11 µM [%] | inhibition at 33 µM [%] | inhibition at 100 µM [%] | Ki [nM] | inhibition at 0.123 µM [%] | inhibition at 0.37 µM [%] | inhibition at 1.1 µM [%] | inhibition at 3.3 µM [%] | inhibition at 10 µM [%] | inhibition at 30 µM [%] |
| --- | --- | --- | --- | --- | --- | --- | --- | --- | --- | --- | --- | --- | --- |
| COCCOCCOCCCc1cc(O)c(C(c2ccccc2)C2CC2)c(=O)o1 (stereo not drawn) [Example 108] | < 10 | 20.4 | 46.9 | 76.7 | 84.8 | 118 | 607 |  |  |  |  |  |  |
| CCCc1oc(=O)c(C(CC)c2ccccc2)c(O)c1Br (stereo not drawn) [Example 109, 5-Bromo-4-hydroxy-3-(1-phenyl-propyl)-6-propyl-pyran-2-one] | 22.2 | 51.8 | 78.9 | 106 | 105 | 108 | 203 |  |  |  |  |  |  |
| CCC(CC)c1oc(=O)c(C(c2ccccc2)C2CC2)c(O)c1CCOCCOC (stereo not drawn) [Example 110, 3-(Cyclopropyl-phenyl-methyl)-6-(1-ethyl-propyl)-4-hydroxy-5-(2-(2-methoxy-ethoxy)ethyl)-pyran-2-one] | < 10 | 16.1 | 43.2 | 71.2 | 88.6 | 84.3 |  |  |  |  |  |  |  |
| CCC(Cc1ccccc1)c1oc(=O)c(C(CC)c2ccccc2)c(O)c1Br (stereo not drawn) [Example 111, 6-(1-Benzyl-propyl)-5-bromo-4-hydroxy-3-(1-phenyl-propyl)-pyran-2-one] | 41.7 | 66.2 | 92.2 | 103 | 102 | 109 | 255 |  |  |  |  |  |  |
| COCCOCCOCCc1c(C(CC2CC2)CC2CC2)oc(=O)c(C(c2ccccc2)C2CC2)c1O (stereo not drawn) [Example 112] | < 10 | < 10 | 10.4 | 18.9 | 37.1 | 46.5 |  |  |  |  |  |  |  |
| C=CC(C1=C(O)CC2(CCC3(CC2)OCCO3)OC1=O)c1ccccc1 (stereo not drawn) [Example 113, 12-Hydroxy-11-(1-phenyl-allyl)-1,4,9-trioxa-dispiro[4.2.5.2]pentadec-11-en-10-one] | < 10 | 15.3 | 42.8 | 79.7 | 101 | 107 | 2560 |  |  |  |  |  |  |
| CCC(C1=C(O)CC2(CCC3(CC2)OCCO3)OC1=O)c1ccccc1 (stereo not drawn) [Example 114, 12-Hydroxy-11-(1-phenyl-propyl)-1,4,9-trioxa-dispiro[4.2.5.2]pentadec-11-en-10-one] | < 10 | < 10 | 25.8 | 63.5 | 67.5 | 55.4 | 4290 |  |  |  |  |  |  |
| CCC(C1=C(O)CC2(CCC(=O)CC2)OC1=O)c1ccccc1 (stereo not drawn) [Example 115, 4-Hydroxy-3-(1-phenyl-propyl)-1-oxa-spiro[5.5]undec-3-ene-2,9-dione] | < 10 | 27.1 | 56.9 | 91.5 | 103 | 94.8 | 1160 |  |  |  |  |  |  |
| CCC(C1=C(O)CC2(CCC(O)CC2)OC1=O)c1ccccc1 (stereo not drawn) [Example 116, 4,9-Dihydroxy-3-(1-phenyl-propyl)-1-oxa-spiro[5.5]undec-3-en-2-one] |  |  |  |  |  |  |  | < 10 | < 10 | < 10 | 31.1 | 62 | 89.9 |
| O=c1oc(CC(O)c2ccco2)cc(O)c1C(c1ccccc1)C1CC1 (stereo not drawn) [Example 117, 3-(Cyclopropyl-phenyl-methyl)-6-(2-furan-2-yl-2-hydroxy-ethyl)-4-hydroxy-pyran-2] |  |  |  |  |  |  |  | < 10 | < 10 | 17 | 51.2 | 87 | 101 |
